Where two headings read alike, the source gives them in different places.
Tests used:
SARS-CoV-2 nsp3-mac1 [1] = target: T1, SARS-CoV-2 nsp3-mac1 (Severe acute respiratory syndrome coronavirus 2, UniProt P0DTD1); experiment: biochemical; assay type: biochemical; conditions: SARS-CoV-2 nsp3 macrodomain TR-FRET single point
SARS-CoV-2 nsp3-mac1 [2] = target: T1, SARS-CoV-2 nsp3-mac1; experiment: biochemical; set-up: SARS-CoV-2 nsp3 macrodomain TR-FRET single point, per cent inhibition, n=2
[3] = read-out: perc_inhibition_mean, batch_name=ASAP-0000252-001
[4] = read-out: perc_inhibition_mean, batch_name=ASAP-0000314-001
[5] = read-out: perc_inhibition_mean, batch_name=ASAP-0000421-001
[6] = read-out: perc_inhibition_mean, batch_name=ASAP-0000253-001
[7] = read-out: perc_inhibition_mean, batch_name=ASAP-0000415-001
[8] = read-out: perc_inhibition_mean, batch_name=ASAP-0000265-001
[9] = read-out: perc_inhibition_mean, batch_name=ASAP-0000333-001
[10] = read-out: perc_inhibition_mean, batch_name=ASAP-0000424-001
[11] = read-out: perc_inhibition_mean, batch_name=ASAP-0000461-001
[12] = read-out: perc_inhibition_mean, batch_name=ASAP-0000391-001
[13] = read-out: perc_inhibition_mean, batch_name=ASAP-0000481-001
[14] = read-out: perc_inhibition_mean, batch_name=ASAP-0000321-001

For `c1nc(NCc2cnc3sccn23)c2[nH]cnc2n1` [ASAP-0000252], the perc_inhibition_mean (SARS-CoV-2 nsp3-mac1 [1]; concentration 50.0 uM) was -4.782%, the perc_inhibition_mean (SARS-CoV-2 nsp3-mac1 [1]; concentration 100.0 uM) was 5.65% and the inhibition at 50 µM (SARS-CoV-2 nsp3-mac1 [2]; [3]) was -4.78%. The inhibition at 100 µM (SARS-CoV-2 nsp3-mac1 [2]; [3]) was 5.65%.

Compound `Cc1ncc(C(=O)N(CCC(=O)N2CCNCC2)Cc2cccc(Cl)c2)cc1N` [ASAP-0000314] has a perc_inhibition_mean (SARS-CoV-2 nsp3-mac1 [1]; concentration 49.75 uM, n=2) of 1.351%, a perc_inhibition_mean (SARS-CoV-2 nsp3-mac1 [1]; concentration 99.5 uM, n=2) of 1.305% and an inhibition at 49.75 µM (SARS-CoV-2 nsp3-mac1 [2]; [4]) of 1.35%. The inhibition at 99.5 µM (SARS-CoV-2 nsp3-mac1 [2]; [4]) was 1.3%.

Work on `O=C(c1c[nH]nn1)N1CCC(c2ccn3ncc(C(=O)N4CCCCC4)c3c2)CC1` [ASAP-0000421] yielded a perc_inhibition_mean (SARS-CoV-2 nsp3-mac1 [1]; concentration 49.75 uM) of 14.65%, a perc_inhibition_mean (SARS-CoV-2 nsp3-mac1 [1]; concentration 99.5 uM) of 25.652% and an inhibition at 49.75 µM (SARS-CoV-2 nsp3-mac1 [2]; [5]) of 14.7%. For the same compound, the inhibition at 99.5 µM (SARS-CoV-2 nsp3-mac1 [2]; [5]) was 25.7%.

`CCc1nc(CN(C)c2nc(C)nc3[nH]ccc23)cs1` [ASAP-0000087] gave a perc_inhibition_mean (SARS-CoV-2 nsp3-mac1 [1]; concentration 50.0 uM) of -6.131% and an inhibition at 50 µM (SARS-CoV-2 nsp3-mac1 [2]; read-out: perc_inhibition_mean, batch_name=ASAP-0000087-001) of -6.13%.

Work on `CSc1cccc(NC(=O)c2ncnc3[nH]ccc23)c1` [ASAP-0000192] yielded a perc_inhibition_mean (SARS-CoV-2 nsp3-mac1 [1]; concentration 50.0 uM) of -4.669% and an inhibition at 50 µM (SARS-CoV-2 nsp3-mac1 [2]; read-out: perc_inhibition_mean, batch_name=ASAP-0000192-001) of -4.67%.

For `Cc1cc(C(=O)Nc2[nH]nc3nc(O)ccc23)c2c(C)nn(C)c2n1` [ASAP-0000253], the perc_inhibition_mean (SARS-CoV-2 nsp3-mac1 [1]; concentration 50.0 uM) was -6.166%, the perc_inhibition_mean (SARS-CoV-2 nsp3-mac1 [1]; concentration 100.0 uM) was -3.323% and the inhibition at 50 µM (SARS-CoV-2 nsp3-mac1 [2]; [6]) was -6.17%. The inhibition at 100 µM (SARS-CoV-2 nsp3-mac1 [2]; [6]) was -3.32%.

In the case of `Brc1ccc(-n2nnnc2Sc2ncnc3[nH]ccc23)cc1` [ASAP-0000063], the perc_inhibition_mean (SARS-CoV-2 nsp3-mac1 [1]; concentration 50.0 uM) is reported as 12.69% and the inhibition at 50 µM (SARS-CoV-2 nsp3-mac1 [2]; read-out: perc_inhibition_mean, batch_name=ASAP-0000063-001) is reported as 12.7%.

With `Cc1nc(Nc2cnn(CCO)c2)c2cc[nH]c2n1` [ASAP-0000046] the perc_inhibition_mean (SARS-CoV-2 nsp3-mac1 [1]; concentration 50.0 uM) was -6.147% and the inhibition at 50 µM (SARS-CoV-2 nsp3-mac1 [2]; read-out: perc_inhibition_mean, batch_name=ASAP-0000046-001) was -6.15%.

Compound `O=C(c1cccnc1O)N1CCC(c2ccn3ncc(C(=O)N4CCCCC4)c3c2)CC1` [ASAP-0000415] has a perc_inhibition_mean (SARS-CoV-2 nsp3-mac1 [1]; concentration 49.75 uM) of -7.036%, a perc_inhibition_mean (SARS-CoV-2 nsp3-mac1 [1]; concentration 99.5 uM) of -3.94% and an inhibition at 49.75 µM (SARS-CoV-2 nsp3-mac1 [2]; [7]) of -7.04%. The inhibition at 99.5 µM (SARS-CoV-2 nsp3-mac1 [2]; [7]) was -3.94%.

Compound `CCC(CC)(C(=O)Nc1nc(C)nc2[nH]ccc12)C(=O)OC(C)(C)C` [ASAP-0000265] has a perc_inhibition_mean (SARS-CoV-2 nsp3-mac1 [1]; concentration 50.0 uM, n=2) of -9.456%, a perc_inhibition_mean (SARS-CoV-2 nsp3-mac1 [1]; concentration 100.0 uM, n=2) of -4.708% and an inhibition at 50 µM (SARS-CoV-2 nsp3-mac1 [2]; [8]) of -9.46%. It also gave an inhibition at 100 µM (SARS-CoV-2 nsp3-mac1 [2]; [8]) of -4.71%.

`CN(C)[C@@H]1CCCN(C(=O)c2cnc3c(c2)c(=O)[nH]c(=O)n3C)CC1` [ASAP-0000058] gave a perc_inhibition_mean (SARS-CoV-2 nsp3-mac1 [1]; concentration 50.0 uM) of -8.971% and an inhibition at 50 µM (SARS-CoV-2 nsp3-mac1 [2]; read-out: perc_inhibition_mean, batch_name=ASAP-0000058-001) of -8.97%.

With `Cn1nncc1C(=O)N(CCC(=O)N1CCNCC1)Cc1cccc(Cl)c1` [ASAP-0000333] the perc_inhibition_mean (SARS-CoV-2 nsp3-mac1 [1]; concentration 49.75 uM, n=2) was 0.447%, the perc_inhibition_mean (SARS-CoV-2 nsp3-mac1 [1]; concentration 99.5 uM, n=2) was -2.15% and the inhibition at 49.75 µM (SARS-CoV-2 nsp3-mac1 [2]; [9]) was 0.447%. For the same compound, the inhibition at 99.5 µM (SARS-CoV-2 nsp3-mac1 [2]; [9]) was -2.15%.

`CN(C(=O)c1cnn2ccc(C3CCN(C(=O)c4ccccc4)CC3)cc12)c1ccccc1O` [ASAP-0000424] showed a perc_inhibition_mean (SARS-CoV-2 nsp3-mac1 [1]; concentration 49.75 uM) of 10.02%, a perc_inhibition_mean (SARS-CoV-2 nsp3-mac1 [1]; concentration 99.5 uM) of 15.878% and an inhibition at 49.75 µM (SARS-CoV-2 nsp3-mac1 [2]; [10]) of 10%. The inhibition at 99.5 µM (SARS-CoV-2 nsp3-mac1 [2]; [10]) was 15.9%.

In the case of `O=S(=O)(Nc1cnc2[nH]ncc2c1)c1cnn(C2CCCC2)c1` [ASAP-0000011], the perc_inhibition_mean (SARS-CoV-2 nsp3-mac1 [1]; concentration 50.0 uM) is reported as 0.415% and the inhibition at 50 µM (SARS-CoV-2 nsp3-mac1 [2]; read-out: perc_inhibition_mean, batch_name=ASAP-0000011-001) is reported as 0.415%.

In the case of `O=C(N[C@@H](C(=O)O)[C@@H](O)Cc1ccccc1)c1ncnc2[nH]ccc12` [ASAP-0000461], the perc_inhibition_mean (SARS-CoV-2 nsp3-mac1 [1]; concentration 49.75 uM) is reported as 3.789%, the perc_inhibition_mean (SARS-CoV-2 nsp3-mac1 [1]; concentration 99.5 uM) is reported as 12.267% and the inhibition at 49.75 µM (SARS-CoV-2 nsp3-mac1 [2]; [11]) is reported as 3.79%. For the same compound, the inhibition at 99.5 µM (SARS-CoV-2 nsp3-mac1 [2]; [11]) was 12.3%.

With `c1ccc(-c2cc(CNc3ncnc4[nH]ccc34)on2)cc1` [ASAP-0000064] the perc_inhibition_mean (SARS-CoV-2 nsp3-mac1 [1]; concentration 100.0 uM) was -3.456% and the inhibition at 100 µM (SARS-CoV-2 nsp3-mac1 [2]; read-out: perc_inhibition_mean, batch_name=ASAP-0000064-001) was -3.46%.

In the case of `CN1CCO[C@@H](CNC(=O)c2cnn3ccc(C4CCN(C(=O)c5ccccc5)CC4)cc23)C1` [ASAP-0000391], the perc_inhibition_mean (SARS-CoV-2 nsp3-mac1 [1]; concentration 49.75 uM) is reported as -12.021%, the perc_inhibition_mean (SARS-CoV-2 nsp3-mac1 [1]; concentration 99.5 uM) is reported as -11.503% and the inhibition at 49.75 µM (SARS-CoV-2 nsp3-mac1 [2]; [12]) is reported as -12%. It also gave an inhibition at 99.5 µM (SARS-CoV-2 nsp3-mac1 [2]; [12]) of -11.5%.

With `CC(C)[C@@H](CCN(C)C(=O)C1CCc2ccccc2CC1)Nc1ncnc2[nH]ccc12` [ASAP-0000481] the perc_inhibition_mean (SARS-CoV-2 nsp3-mac1 [1]; concentration 49.75 uM) was -5.62%, the perc_inhibition_mean (SARS-CoV-2 nsp3-mac1 [1]; concentration 99.5 uM) was -10.916% and the inhibition at 49.75 µM (SARS-CoV-2 nsp3-mac1 [2]; [13]) was -5.62%. For the same compound, the inhibition at 99.5 µM (SARS-CoV-2 nsp3-mac1 [2]; [13]) was -10.9%.

With `Cn1c(C(=O)N(CCC(=O)N2CCNCC2)Cc2cccc(Cl)c2)cnc1O` [ASAP-0000321] the perc_inhibition_mean (SARS-CoV-2 nsp3-mac1 [1]; concentration 49.75 uM, n=2) was -4.765%, the perc_inhibition_mean (SARS-CoV-2 nsp3-mac1 [1]; concentration 99.5 uM, n=2) was -2.757% and the inhibition at 49.75 µM (SARS-CoV-2 nsp3-mac1 [2]; [14]) was -4.76%. For the same compound, the inhibition at 99.5 µM (SARS-CoV-2 nsp3-mac1 [2]; [14]) was -2.76%.

— article doi:10.1101/2024.08.19.608619, “Discovery of potent SARS-CoV-2 nsp3 macrodomain inhibitors uncovers lack of translation to cellular antiviral response” (bioRxiv, 2024)
